Measured values published in patent US20250230138A1, “COMPOUNDS HAVING A T-STRUCTURE FORMED BY AT LEAST FOUR CYCLES FOR USE IN THE TREATMENT OF CANCER AND OTHER INDICATIONS” (TheRas, Inc., priority 2022, published 2025).
Read-outs that look alike come from different tables or passages of the source.

Assays:
pAKT in BT474 cells = test: Cell-based pAKT HTRF assay in BT474 cells; details: BT474 cells, 4 hr incubation, read-out: pAKT inhibition IC50 in BT474 cells
How it was run: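 Compound titration: 3 μM downward in 3-fold steps, nine points, 4 hr on cells. Detection: lysis, then d2 plus Eu Cryptate antibody mix, room-temperature incubation of 4–24 h, and time-resolved fluorescence read at 615 nm.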

[1] = target: Cys242 in human PIK3CA (157-299) (Homo sapiens (Human), UniProt P42336); test: Covalent modification assay using MALDI-TOF MS; format: biochemical; details: 4 h reaction time point
Sequence of Cys242 in human PIK3CA (157-299) (P42336 157-299): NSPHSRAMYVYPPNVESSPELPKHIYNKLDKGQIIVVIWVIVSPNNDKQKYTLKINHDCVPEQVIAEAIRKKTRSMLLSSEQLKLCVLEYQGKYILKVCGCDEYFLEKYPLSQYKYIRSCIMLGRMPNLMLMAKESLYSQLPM
How it was run: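 Covalent adduct formation was read by linear-mode MALDI-TOF with sinapinic acid matrix, reported as modified-protein peak height divided by total protein peak heights. Reactions held PIK3CA (157-299) at 1 or 3.33 μM in HEPES/NaCl/MgCl2 buffer, pH 7.3, sampled after 15 min to 4 h at room temperature.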

[2] = 1 μM protein target, 1:5 protein to compound ratio (compounds 853-1279)
[3] = Homo sapiens, BT-474, Compounds 10-999
[4] = 3.33 μM protein target, 1:7.5 protein to compound ratio (compounds 1-852)

Structure (SMILES)	IC50 (pAKT in BT474 cells; Compounds 1000-1279)	% of modification [1, 2]	IC50 (pAKT in BT474 cells; [3])	% of modification [1, 4]	IC50 (pAKT in BT474 cells; Compounds 10-999)
COCCOc1cc(F)cc(F)c1-c1c(-c2cc3n(n2)CCN(C(=O)CCl)[C@@H]3C)nc(-c2ccc3c(cnn3C)c2)c2ccsc12 [Compound 1225]	> 1 µM	A (percent of modification of PIK3CA protein ≥75%)	–	–	–
C=CC(=O)N1CCn2nc(-c3nc(-c4ccc5c(c4)CCNC5)c4ccsc4c3-c3ccc(F)cc3OCCOC)cc2C1 [Compound 115, 1-[2-[7-[4-fluoro-2-(2-methoxyethoxy)phenyl]-4-(1,2,3,4-tetrahydroisoquinolin-6-yl)thieno[3,2-c]pyridin-6-yl]-6,7-dihydro-4H-pyrazolo[1,5-a]pyrazin-5-yl]prop-2-en-1-one]	–	–	< 0.1 µM	A (percent of modification of PIK3CA protein ≥75%)	–
C=CC(=O)N1Cc2cc(-c3nc(-c4cnc5c(c4)CN(C)C5=O)c4ccsc4c3-c3c(F)cc(F)cc3OC(C)C)nn2[C@@H](C)C1 [Compound 505]	–	–	–	A (percent of modification of PIK3CA protein ≥75%)	< 0.1 µM
C=CC(=O)N1CCc2nc(-c3nc(-c4ccc(C(C)(C)O)nc4)c4ccsc4c3-c3c(F)cc(F)cc3OCCOC)sc2C1 [Compound 445]	–	–	–	A (percent of modification of PIK3CA protein ≥75%)	0.1 to 1 µM
C=CC(=O)N1CCn2nc(-c3nc(-c4ccc5c(c4)ncn5C)c4ccsc4c3-c3c(F)cc(F)cc3OCCO)cc2[C@H]1C [Compound 775]	–	–	–	A (percent of modification of PIK3CA protein ≥75%)	< 0.1 µM
C=CC(=O)N1CCc2ccc(-c3nc(-c4ccc5c(c4)CNC5=O)c4ccsc4c3-c3c(F)cc(F)cc3OCCOC)cc2C1 (single isomer, unassigned) [Compound 887]	–	A (percent of modification of PIK3CA protein ≥75%)	–	–	< 0.1 µM
C=CC(=O)N1CCc2nc(-c3nc(-c4ccc5c(c4)CCNC5)c4ccsc4c3-c3ccc(F)cc3OC(F)F)sc2C1 [Compound 215]	–	–	–	A (percent of modification of PIK3CA protein ≥75%)	0.1 to 1 µM
C=CC(=O)N1CCn2nc(-c3nc(-c4ccc5cn(C)nc5c4)c4ccsc4c3-c3c(F)cc(F)cc3OCCOC)cc2[C@H]1C [Compound 747]	–	–	–	A (percent of modification of PIK3CA protein ≥75%)	< 0.1 µM
C=CC(=O)N1CCc2nc(-c3nc(-c4ccc5nn(C)cc5c4)c4ccsc4c3-c3c(F)cc(F)cc3OCCOC)sc2C1 [Compound 427]	–	–	–	A (percent of modification of PIK3CA protein ≥75%)	< 0.1 µM
C=CC(=O)N1CC(n2cc(-c3nc(-c4cnn(CC5CC5(F)F)c4)c4ccsc4c3-c3ccc(F)cc3OCCOC)cn2)C1 (stereo not drawn) [Compound 237]	–	–	–	A (percent of modification of PIK3CA protein ≥75%)	0.1 to 1 µM
C=CC(=O)N1CCn2nc(-c3nc(-c4ccc5c(c4)CCNC5=O)c4ccsc4c3-c3ccc(F)cc3OC(C)C)cc2C1 [Compound 199, 6-[7-(4-fluoro-2-isopropoxy-phenyl)-6-(5-prop-2-enoyl-6,7-dihydro-4H-pyrazolo[1,5-a]pyrazin-2-yl)thieno[3,2-c]pyridin-4-yl]-3,4-dihydro-2H-isoquinolin-1-one]	–	–	< 0.1 µM	A (percent of modification of PIK3CA protein ≥75%)	–
C=CC(=O)N1Cc2cc(-c3nc(-c4cnn(C(C)C)c4)c4ccsc4c3-c3c(F)cc(F)cc3OCCO)nn2[C@@H](C)C1 [Compound 728]	–	–	–	D (percent of modification <25%)	0.1 to 1 µM
C=CC(=O)N1CCc2nc(-c3nc(-c4ccnc(N)c4)c4ccsc4c3-c3ccc(F)cc3OCCOC)sc2C1 [Compound 141]	–	–	–	A (percent of modification of PIK3CA protein ≥75%)	< 0.1 µM
CC#CC(=O)N1CC(n2cc(-c3nc(-c4ccc5c(c4)CCNC5)c4ccsc4c3-c3ccc(F)cc3OC)cn2)C1 [Compound 113]	–	–	–	D (percent of modification <25%)	> 3 µM
C=CC(=O)N1CC(n2cc(-c3nc(N4CCn5cnnc5C4)c4ccsc4c3-c3ccc(F)cc3OCCOC)cn2)C1 [Compound 228]	–	–	–	A (percent of modification of PIK3CA protein ≥75%)	0.1 to 1 µM
C=CC(=O)N1CCn2nc(-c3nc(-c4ccc5c(c4)CCN(C(C)C)C5)c4ccsc4c3-c3ccc(F)cc3OCC3CCNC(=O)C3)cc2C1 (stereo not drawn) [Compound 254]	–	–	–	A (percent of modification of PIK3CA protein ≥75%)	< 0.1 µM
C=CC(=O)N1Cc2cc(-c3nc(-c4cnc5c(c4)CN(C)C5=O)c4ccsc4c3-c3c(F)cc(F)cc3OCCOC)nn2C[C@H]1C [Compound 504]	–	–	–	A (percent of modification of PIK3CA protein ≥75%)	< 0.1 µM

Structure (SMILES)	IC50 (pAKT in BT474 cells; Compounds 1000-1279)	% of modification [1, 2]	IC50 (pAKT in BT474 cells; [3])	% of modification [1, 4]	IC50 (pAKT in BT474 cells; Compounds 10-999)
C=CC(=O)N1CCn2nc(-c3nc(-c4ccc5c(C)n(C)nc5c4)c4ccsc4c3-c3c(F)cc(F)cc3OCCO)cc2C1C (stereo not drawn) [Compound 1076]	< 0.1 µM	A (percent of modification of PIK3CA protein ≥75%)	–	–	–
C=C(F)C(=O)N1CCn2nc(-c3nc(-c4ccc(=O)[nH]c4)c4ccsc4c3-c3ccc(F)cc3OC(C)C)cc2C1 [Compound 307]	–	–	–	A (percent of modification of PIK3CA protein ≥75%)	0.1 to 1 µM
C=CC(=O)N1CCn2nc(-c3nc(-c4ccc5c(cnn5C)c4)c4ccsc4c3-c3c(F)cc(F)cc3OC[C@@H](C)O)cc2[C@@H]1C [Compound 671]	–	–	–	A (percent of modification of PIK3CA protein ≥75%)	< 0.1 µM
C=CC(=O)N1CCn2nc(-c3nc(-c4cnc5cn(C)nc5c4)c4ccsc4c3-c3c(F)cc(F)cc3OCCO)cc2C1C (stereo not drawn) [Compound 913]	–	A (percent of modification of PIK3CA protein ≥75%)	–	–	< 0.1 µM
C=CC(=O)N1CCn2nc(-c3nc(-c4cnn(C)c4)c4ccsc4c3-c3c(F)cc(F)cc3OC[C@@H](C)O)cc2[C@@H]1C [Compound 547]	–	–	–	A (percent of modification of PIK3CA protein ≥75%)	< 0.1 µM
C=CC(=O)N1CCc2nc(-c3nc(-c4ccc(=O)n(C)c4)c4ccsc4c3-c3c(F)cc(F)cc3OC(C)C)sc2C1 [Compound 348]	–	–	–	A (percent of modification of PIK3CA protein ≥75%)	< 0.1 µM
C=CC(=O)N1CCc2nc(-c3nc(-c4cnn(C)c4)c4ccsc4c3-c3ccc(F)cc3OCC3CCN(C)C(=O)C3)sc2C1 (stereo not drawn) [Compound 221]	–	–	–	A (percent of modification of PIK3CA protein ≥75%)	< 0.1 µM
C=CC(=O)N1Cc2cc(-c3nc(-c4cnn(C(F)F)c4)c4ccsc4c3-c3c(F)cc(F)cc3OCCOC)nn2CC1C (stereo not drawn) [Compound 772]	–	–	–	A (percent of modification of PIK3CA protein ≥75%)	< 0.1 µM
C=CC(=O)N1CC(n2cc(-c3nc(-c4ccc5c(c4)CCNC5)c4ccsc4c3-c3ccc(F)cc3OCCOC)ccc2=O)C1 [Compound 157]	–	–	–	A (percent of modification of PIK3CA protein ≥75%)	< 0.1 µM
C=CC(=O)N1CCn2nc(-c3nc(N4CCC5(CC4)CS(=O)(=O)C5)c4ccsc4c3-c3ccc(F)cc3OC(C)C)cc2C1 [Compound 211]	–	–	–	A (percent of modification of PIK3CA protein ≥75%)	< 0.1 µM
C=CC(=O)N1CCn2nc(-c3nc(-c4ccc5ncn(C)c(=O)c5c4)c4ccsc4c3-c3c(F)cc(F)cc3OCCO)cc2C1C (stereo not drawn) [Compound 900]	–	A (percent of modification of PIK3CA protein ≥75%)	–	–	< 0.1 µM
C=CC(=O)N1Cc2cc(-c3nc(-c4ccc5ncn(C)c5c4)c4ccsc4c3-c3c(F)cc(F)cc3O[C@H](C)CO)nn2C[C@H]1C [Compound 611]	–	–	–	D (percent of modification <25%)	0.1 to 1 µM
C=CC(=O)N1CC(n2cc(-c3nc(-c4cnn(CCO)c4)c4ccsc4c3-c3ccc(F)cc3OCCOC)cn2)C1 [Compound 233]	–	–	–	A (percent of modification of PIK3CA protein ≥75%)	< 0.1 µM
C=CC(=O)N1Cc2cc(-c3nc(-c4ccc5c(c4)NC(=O)C5)c4ccsc4c3-c3c(F)cc(F)cc3OCCOC)nn2C[C@H]1C [Compound 779]	–	–	–	A (percent of modification of PIK3CA protein ≥75%)	< 0.1 µM
C=CC(=O)N1CCn2nc(-c3nc(N4CC5(CCNC(=O)C5)C4)c4ccsc4c3-c3c(F)cc(F)cc3OCCOC)cc2C1C (stereo not drawn) [Compound 1088]	0.1 to 1 µM	B (50%<percent of modification <75%)	–	–	–
C=CC(=O)N1CCc2cc(-c3nc(-c4ccc5nn(C)cc5c4)c4ccsc4c3-c3c(F)cc(F)cc3OCCO)nn2CC1 [Compound 1200]	< 0.1 µM	A (percent of modification of PIK3CA protein ≥75%)	–	–	–
